# In patent US20250090441A1, “ANTI-CARIES PEPTIDES WITH ANTIMICROBIAL AND REMINERALIZING PROPERTIES AND METHODS THEREOF” (THE UNIVERSITY OF HONG KONG, priority 2023, published 2025):
# Where a SMILES comes first, the peptide text is derived from it.
# How the values were obtained:
# [1] = test system: Candida albicans, ATCC 90028; type: cell-based
# Method: The antimicrobial properties of synthesized peptides against bacteria and fungi were evaluated using minimum inhibitory concentration (MIC) and minimum bactericidal/fungicidal concentration (MBC/MFC) tests (Wiegand et al. 2008). The tested species include Streptococcus mutans, UA159; Lacticaseibacillus casei, American Type Culture Collection (ATCC) 334; and Candida albicans, ATCC 90028. A 10 μL aliquot of bacterial culture (10^6 CFU/mL) in brain heart infusion (BHI) broth was added to 100 μL serial two-fold dilutions of experimental solutions. The optical density values at 660 nm were measured after 18 h of incubation. To determine the MBC, 10 μL of bacterial culture was taken from the well of MIC, and wells before and after the well of MIC, and transferred to blood agar. The test protocol for fungi was similar: the culture medium was a Roswell Park Memorial Institute (RPMI) 1640 Medium, the absorbance was measured at 520 nm, and Sabouraud dextrose agar was used for the MFC test. Chlorhexidine and medium were used as the positive and negative controls.
# [2] = test system: Human gingival fibroblast (HGF-1) cells; experiment: Biocompatibility, cytotoxicity by Cell Counting Kit-8 Assay; type: cell-based
# Method: The biocompatibility of GAPI was evaluated by cytotoxicity assay using Cell Counting Kit-8 Assay (CCK-8, Apexbio, MA, USA) (Zhang et al. 2019). Human gingival fibroblast (HGF-1, Otwo Biotech Inc., China) cells (1×10^5/mL) were cultured and treated with GAPI. The cells cultured with the only medium were negative controls. The optical density values indicating the number of viable cells was measured at 450 nm after 24 h of incubation.
# [3] = Remineralizing effects on enamel, chemical pH cycling model (SEM-EDS, Micro-CT, XRD); design: species or system human; conditions: 160 μM twice daily, pH cycling 8 days, n = 8
# Method: Ten enamel slices were cut from extracted sound human molars. Each slice was separated into four blocks. A total of 40 enamel blocks were prepared. Then the surface of the enamel block was half-covered by an acid-resistant varnish. The exposed half was the experimental surface, and the varnished half was the internal control. Before use, all the enamel blocks were sterilized via autoclave (Niu et al. 2021d; Yu et al. 2018).
# The pH-cycling procedure (16 h-demineralization at pH 4.5 and 8 h-remineralization at pH 7.0) was performed to enamel blocks for 8 days. The formula for demineralizing/remineralizing solution was employed from a previous study (Yu et al. 2018). The enamel blocks from the same enamel slice were treated twice daily with 160 μM GAPI (GAPI Group), 160 μM gallic acid (GA Group), 160 μM polyphemusin-I (PI Group), and sterile deionized water (Water Group). All enamel blocks after pH cycling were involved in sequent assessments.
# The structure of the enamel surface was examined using SEM (n=8 per group) (Niu et al. 2021d). The elemental analysis of enamel surface was conducted using affiliated energy-dispersive X-ray spectroscopy (EDS). The calcium to phosphorus molar ratio was calculated (Niu et al. 2022). The mineral loss and lesion depth on the enamel blocks were assessed using microcomputed tomography (Micro-CT) (1076, SkyScan, Antwerp, Belgium) (n=8 per group) (Niu et al. 2022). The diffraction patterns of the enamel blocks were evaluated using X-ray diffraction analysis (XRD) (Rigaku SmartLab 9 kW, […]) (n=2 per group) (Yu et al. 2018).
# [4] = test system: S. mutans biofilm (ATCC 35668) on dentine blocks; experiment: Antibiofilm effect on dentine, biofilm remineralization cycling model (CLSM, CFU); type: cell-based, Streptococcus mutans; conditions: 160 μM GAPI, 7 days cycling, n = 8
# Description: Dentine slices, 2 mm thick, were cut from sound extracted third molars. Ultra-fine 4000-grit sandpaper was used to polish these slices. Slices with defects were eliminated based on a stereomicroscope observation. A total of forty dentine slices were selected. Each slice was separated into two blocks and assigned to two groups. Nail varnish was used to coat half of the blocks as an internal control. S. mutans American Type Culture Collection 35668 was utilized in the present study. All the dentine blocks were placed into S. mutans culture (10^8 cells/mL) in a brain-heart infusion (BHI) broth containing 5% glucose to generate artificial caries. After a 3-day anaerobic culture at 37° C., the depth of the caries lesion surface was around 96 μm, which was observed using micro-computed tomography (micro-CT). […]
# CLSM (Fluoview FV 1000, Olympus, Tokyo, Japan) was utilized to capture images to assess the S. mutans biofilm viability (n=8 for each group). […] The red-green ratio represented the dead-live ratio calculated using Image J version 1.53 t (National Institute of Health, Bethesda, MD, USA).
# To determine the S. mutans biofilm growth kinetics, the colony-forming units (CFUs) were counted (n=8 for each group). […] All the plates were cultured anaerobically for 48 h at 37° C. before the CFUs were counted. The log CFU was calculated for a statistical analysis.
compound,measurement,setting,value
"CC(C)[C@@H]1NC(=O)[C@H](CCCN=C(N)N)NC(=O)[C@H](Cc2ccccc2)NC(=O)[C@@H](NC(=O)[C@H](Cc2c[nH]c3ccccc23)NC(=O)[C@H](CCCN=C(N)N)NC(=O)[C@H](CCCN=C(N)N)NC(=O)c2cc(O)c(O)c(O)c2)CSSC[C@@H](C(=O)N[C@@H](CCCN=C(N)N)C(=O)O)NC(=O)[C@H](CCCCN)NC(=O)[C@H](CCCN=C(N)N)NC(=O)[C@H](Cc2ccc(O)cc2)NC(=O)[C@@H]2CSSC[C@H](NC1=O)C(=O)N[C@@H](Cc1ccc(O)cc1)C(=O)N[C@@H](CCCN=C(N)N)C(=O)NCC(=O)N[C@@H](Cc1ccccc1)C(=O)N2 [GAPI, Gallic-Acid-Polyphemusin-I] (HELM PEPTIDE1{[O=C(c1cc(O)c(O)c(O)c1)[*:2]].R.R.W.C.F.R.V.C.Y.R.G.F.C.Y.R.K.C.R}$PEPTIDE1,PEPTIDE1,5:R3-18:R3|PEPTIDE1,PEPTIDE1,9:R3-14:R3$$$V2.0)",minimum inhibitory concentration,[1],80 µM
same,MBC/MFC,[1]; μM,40
same,MIC,[1]; μM,20
same,"optical density values (450 nm, viable cells) versus negative control","[2]; 80, 160, 320 and 640 μM, HGF-1 cells, 24 h",no significant difference
same,cytotoxicity to HGF-1 cells,"[2]; CCK-8, 24 h",low cytotoxicity
same,Calcium to phosphate molar ratio,[3]; EDS,1.81 ± 0.05
same,Lesion depth,[3]; Micro-CT,64 ± 7 μm
same,Mineral loss,[3]; Micro-CT,0.89 ± 0.20 gHApcm^−3
same,Viability: Dead-to-live ratio,[4]; CLSM,0.77±0.13
same,Kinectics: Log10 CFU,[4],7.45±0.32
